In patent US11524938B2, “Aromatic sulfonamide derivatives” (Bayer Pharma Aktiengesellschaft, priority 2016, dated 2022) one finds Emax and IC50 data, which are given here for 29 molecules.

As usually defined, the IC50 is the concentration that inhibits the measured activity by half. A low value points to greater potency in that assay.

The target in this assay is T1, human P2X4 (Homo sapiens, UniProt Q99571).
T1 sequence (Q99571 1-388): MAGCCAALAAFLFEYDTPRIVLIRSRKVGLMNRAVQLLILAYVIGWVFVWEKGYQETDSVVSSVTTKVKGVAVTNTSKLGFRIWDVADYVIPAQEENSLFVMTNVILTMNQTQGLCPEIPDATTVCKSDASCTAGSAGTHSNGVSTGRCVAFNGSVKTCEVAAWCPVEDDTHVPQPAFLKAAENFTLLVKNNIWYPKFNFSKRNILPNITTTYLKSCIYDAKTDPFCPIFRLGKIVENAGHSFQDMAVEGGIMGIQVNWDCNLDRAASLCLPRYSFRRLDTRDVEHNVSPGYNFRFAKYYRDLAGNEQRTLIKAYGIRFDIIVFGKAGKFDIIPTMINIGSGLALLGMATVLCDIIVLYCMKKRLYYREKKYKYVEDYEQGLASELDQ
Description: Human P2X4 HEK Cell FLIPR Assay. Format: cell-based. To be noted: agonist Bz-ATP at EC80; for Emax: HEK293, HEK293 cells, percentage of maximal inhibition, read-out: Human P2X4 HEK Cells (FLIPR Assay) avg Efficacy [%]; for IC50: HEK293 cells, individual values listed where some fall outside detection range. The procedure, abridged:
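HEK293 cells stably expressing human P2X4, Fluo8-AM loaded 30 min at 37° C, then compound 30 min at room temperature (0.5% DMSO, pH 7.4 buffer with 1.8 mM CaCl2). Bz-ATP at its daily-determined EC80 added; calcium fluorescence read over 120 sec; IC50 from peak RFU normalized to agonist control, triplicates.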

For the molecule `NS(=O)(=O)c1cc(NC(=O)Cc2cccc(C(F)(F)F)c2Cl)ccc1-n1cc(C(F)(F)F)cn1` [Example 131, 2-[2-Chloro-3-(trifluoromethyl)phenyl]-N-{3-sulfamoyl-4-[4-(trifluoromethyl)-1H-pyrazol-1-yl]phenyl}acetamide], the Emax was 58% and the IC50 worked out at 155 nM.

On to `Cc1ccc(F)c(CC(=O)Nc2ccc(-n3cc(C(F)(F)F)cn3)c(S(N)(=O)=O)c2)c1Cl` [Example 132, 2-(2-Chloro-6-fluoro-3-methylphenyl)-N-{3-sulfamoyl-4-[4-(trifluoromethyl)-1H-pyrazol-1-yl]phenyl}acetamide], for which the Emax was 62% and the concentration for half-maximal inhibition (IC50) worked out at 80 nM.

For the molecule `NS(=O)(=O)c1cc(NC(=O)Cc2c(F)ccc(F)c2Cl)ccc1-n1cc(C(F)(F)F)cn1` [Example 133, 2-(2-Chloro-3,6-difluorophenyl)-N-{3-sulfamoyl-4-[4-(trifluoromethyl)-1H-pyrazol-1-yl]phenyl}acetamide], the Emax was determined as 82% and the IC50 came out at 107 nM.

For `NS(=O)(=O)c1cc(NC(=O)Cc2c(Cl)cccc2C(F)(F)F)ccc1-n1cc(C(F)(F)F)cn1` [Example 134, 2-[2-Chloro-6-(trifluoromethyl)phenyl]-N-{3-sulfamoyl-4-[4-(trifluoromethyl)-1H-pyrazol-1-yl]phenyl}acetamide], the Emax is 89% and the IC50 amounted to 147 nM.

As for `COc1ccc(CC(=O)Nc2ccc(-n3cc(C(F)(F)F)cn3)c(S(N)(=O)=O)c2)c(Cl)c1` [Example 135, 2-(2-Chloro-4-methoxyphenyl)-N-{3-sulfamoyl-4-[4-(trifluoromethyl)-1H-pyrazol-1-yl]phenyl}acetamide], the Emax came out at 90% and the half-maximal inhibitory concentration (IC50) came out at 73 nM.

Take `NS(=O)(=O)c1cc(NC(=O)Cc2cc(Cl)ccc2Cl)ccc1-n1cc(C(F)(F)F)cn1` [Example 136, 2-(2,5-Dichlorophenyl)-N-{3-sulfamoyl-4-[4-(trifluoromethyl)-1H-pyrazol-1-yl]phenyl}-acetamide]: the Emax was determined as 84% and the IC50 worked out at 211 nM.

Turning to `CC(C)c1ccccc1CC(=O)Nc1ccc(-n2cc(C(F)(F)F)cn2)c(S(N)(=O)=O)c1` [Example 137, 2-(2-Isopropylphenyl)-N-{3-sulfamoyl-4-[4-(trifluoromethyl)-1H-pyrazol-1-yl]phenyl}-acetamide], the Emax amounted to 89% and the IC50 came out at 1170 nM.

Take `COc1ccc(Cl)c(CC(=O)Nc2ccc(-n3cc(C(F)(F)F)cn3)c(S(N)(=O)=O)c2)c1` [Example 138, 2-(2-Chloro-5-methoxyphenyl)-N-{3-sulfamoyl-4-[4-(trifluoromethyl)-1H-pyrazol-1-yl]phenyl}acetamide]: the Emax worked out at 100% and the concentration for half-maximal inhibition (IC50) was 238 nM.

In the case of `NS(=O)(=O)c1cc(NC(=O)Cc2cc(F)ccc2Cl)ccc1-n1cc(C(F)(F)F)cn1` [Example 139, 2-(2-Chloro-5-fluorophenyl)-N-{3-sulfamoyl-4-[4-(trifluoromethyl)-1H-pyrazol-1-yl]phenyl}acetamide], the Emax stood at 100% and the IC50 amounted to 107 nM.

Turning to `NS(=O)(=O)c1cc(NC(=O)Cc2ccccc2C(F)(F)F)ccc1-n1cc(F)cn1` [Example 140, N-[4-(4-Fluoro-1H-pyrazol-1-yl)-3-sulfamoylphenyl]-2-[2-(trifluoromethyl)phenyl]-acetamide], the Emax was determined as 92% and the 50% inhibitory concentration (IC50) came out at 77 nM.

As to `Cc1cc(F)c(Br)cc1CC(=O)Nc1ccc(-n2cc(C(F)(F)F)cn2)c(S(N)(=O)=O)c1` [Example 141, 2-(5-Bromo-4-fluoro-2-methylphenyl)-N-{3-sulfamoyl-4-[4-(trifluoromethyl)-1H-pyrazol-1-yl]phenyl}acetamide], the Emax amounted to 96% and the half-inhibitory concentration (IC50) was 638 nM.

For the molecule `COc1cccc(Cl)c1CC(=O)Nc1ccc(-n2cc(C(F)(F)F)cn2)c(S(N)(=O)=O)c1` [Example 142, 2-(2-Chloro-6-methoxyphenyl)-N-{3-sulfamoyl-4-[4-(trifluoromethyl)-1H-pyrazol-1-yl]phenyl}acetamide], the Emax is 78% and the IC50 was determined as 116 nM.

For the molecule `NS(=O)(=O)c1cc(NC(=O)Cc2c(F)cc(F)cc2Cl)ccc1-n1cc(C(F)(F)F)cn1` [Example 143, 2-(2-Chloro-4,6-difluorophenyl)-N-{3-sulfamoyl-4-[4-(trifluoromethyl)-1H-pyrazol-1-yl]phenyl}acetamide], the Emax stood at 84% and the IC50 was determined as 247 nM.

`NS(=O)(=O)c1cc(NC(=O)Cc2cccc(F)c2)ccc1-n1cc(F)cn1` [Example 144, 2-(3-Fluorophenyl)-N-[4-(4-fluoro-1H-pyrazol-1-yl)-3-sulfamoylphenyl]acetamide]: the Emax is 62% and the IC50 came out at 292 nM.

As for `NS(=O)(=O)c1cc(NC(=O)Cc2ccc(F)c(F)c2)ccc1-n1cc(F)cn1` [Example 145, 2-(3,4-Difluorophenyl)-N-[4-(4-fluoro-1H-pyrazol-1-yl)-3-sulfamoylphenyl]acetamide], the Emax was found to be 49% and the IC50 was over 25000 nM.

Turning to `NS(=O)(=O)c1cc(NC(=O)Cc2cc(F)cc(F)c2)ccc1-n1cc(F)cn1` [Example 146, 2-(3,5-Difluorophenyl)-N-[4-(4-fluoro-1H-pyrazol-1-yl)-3-sulfamoylphenyl]acetamide], the Emax worked out at 66% and the IC50 came out at 364 nM.

As for `NS(=O)(=O)c1cc(NC(=O)Cc2ccccc2O)ccc1-n1cc(F)cn1` [Example 147, N-[4-(4-Fluoro-1H-pyrazol-1-yl)-3-sulfamoylphenyl]-2-(2-hydroxyphenyl)acetamide], the Emax was 100% and the IC50 is 80 nM.

Turning to `NS(=O)(=O)c1cc(NC(=O)Cc2cccc(Cl)c2)ccc1-n1cc(F)cn1` [Example 148, 2-(3-Chlorophenyl)-N-[4-(4-fluoro-1H-pyrazol-1-yl)-3-sulfamoylphenyl]acetamide], the Emax was determined as 63% and the IC50 came to 132 nM.

Consider `NS(=O)(=O)c1cc(NC(=O)Cc2ccc(F)cc2)ccc1-n1cc(F)cn1` [Example 149, 2-(4-Fluorophenyl)-N-[4-(4-fluoro-1H-pyrazol-1-yl)-3-sulfamoylphenyl]acetamide], for which the Emax amounted to 56% and the IC50 was 211 nM.

For `NS(=O)(=O)c1cc(NC(=O)Cc2ccc(O)cc2)ccc1-n1cc(F)cn1` [Example 150, N-[4-(4-Fluoro-1H-pyrazol-1-yl)-3-sulfamoylphenyl]-2-(4-hydroxyphenyl)acetamide], the Emax came out at 80% and the IC50 is 433 nM.

On to `Cc1cccc(CC(=O)Nc2ccc(-n3cc(F)cn3)c(S(N)(=O)=O)c2)c1` [Example 151, N-[4-(4-Fluoro-1H-pyrazol-1-yl)-3-sulfamoylphenyl]-2-(3-methylphenyl)acetamide], for which the Emax was 83% and the half-inhibitory concentration (IC50) was 81 nM.

With `Cc1ccc(CC(=O)Nc2ccc(-n3cc(F)cn3)c(S(N)(=O)=O)c2)cc1` [Example 152, N-[4-(4-Fluoro-1H-pyrazol-1-yl)-3-sulfamoylphenyl]-2-(4-methylphenyl)acetamide], the Emax was 79% and the IC50 was determined as 105 nM.

In the case of `COc1ccc(CC(=O)Nc2ccc(-n3cc(F)cn3)c(S(N)(=O)=O)c2)cc1` [Example 153, N-[4-(4-Fluoro-1H-pyrazol-1-yl)-3-sulfamoylphenyl]-2-(4-methoxyphenyl)acetamide], the Emax is 74% and the IC50 turned out to be 182 nM.

Turning to `Cc1ccccc1CC(=O)Nc1ccc(-n2cc(F)cn2)c(S(N)(=O)=O)c1` [Example 154, N-[4-(4-Fluoro-1H-pyrazol-1-yl)-3-sulfamoylphenyl]-2-(2-methylphenyl)acetamide], the Emax was 84% and the half-inhibitory concentration (IC50) was found to be 30 nM.

As to `NS(=O)(=O)c1cc(NC(=O)Cc2cccc(F)c2F)ccc1-n1cc(F)cn1` [Example 155, 2-(2,3-Difluorophenyl)-N-[4-(4-fluoro-1H-pyrazol-1-yl)-3-sulfamoylphenyl]acetamide], the Emax is 86% and the IC50 came to 108 nM.

Regarding `CCOc1ccccc1CC(=O)Nc1ccc(-n2cc(F)cn2)c(S(N)(=O)=O)c1` [Example 156, 2-(2-Ethoxyphenyl)-N-[4-(4-fluoro-1H-pyrazol-1-yl)-3-sulfamoylphenyl]acetamide], the Emax was determined as 94% and the IC50 was determined as 243 nM.

Turning to `NS(=O)(=O)c1cc(NC(=O)Cc2ccccc2OC(F)F)ccc1-n1cc(F)cn1` [Example 157, 2-[2-(Difluoromethoxy)phenyl]-N-[4-(4-fluoro-1H-pyrazol-1-yl)-3-sulfamoylphenyl]-acetamide], the Emax worked out at 90% and the IC50 is 153 nM.

In the case of `NS(=O)(=O)c1cc(NC(=O)Cc2cccnc2Cl)ccc1-n1cc(F)cn1` [Example 158, 2-(2-Chloropyridin-3-yl)-N-[4-(4-fluoro-1H-pyrazol-1-yl)-3-sulfamoylphenyl]acetamide], the Emax stood at 89% and the IC50 worked out at 2600 nM.

For `Cc1ccc(F)c(CC(=O)Nc2ccc(-n3cc(F)cn3)c(S(N)(=O)=O)c2)c1Cl` [Example 159, 2-(2-Chloro-6-fluoro-3-methylphenyl)-N-[4-(4-fluoro-1H-pyrazol-1-yl)-3-sulfamoyl-phenyl]acetamide], the Emax was 82% and the 50% inhibitory concentration (IC50) is 12 nM.
